Assay results: article PMC10525132, “Potent Antioxidant and Anti-Tyrosinase Activity of Butein and Homobutein Probed by Molecular Kinetic and Mechanistic Studies” (Antioxidants, 2023)
Where two headings read alike, the source gives them in different places.

What was measured:
[1] = biological target: T1, mushroom tyrosinase (mTYR) (Agaricus bisporus, UniProt C7FF04); assay: Inhibition of mushroom tyrosinase monophenolase reaction (substrate L-tyrosine, dopachrome at 475 nm); format: biochemical; settings: for Vmax^app / IC50: 30 °C; for Vmax^app: pH 6.8, L-tyrosine; for IC50: IC50 Monophenolase; for inhibition mode, monophenolase: from M-M and Lineweaver–Burk plots; for KI′ Calc. from Km / KI′ Calc. from Vmax / KI′ Uncompetitive / Ki: monophenolase; for Ki: KI Competitive
T1 construct: purchased Sigma-Aldrich (Milan, Italy)
T1 sequence (C7FF04 1-392): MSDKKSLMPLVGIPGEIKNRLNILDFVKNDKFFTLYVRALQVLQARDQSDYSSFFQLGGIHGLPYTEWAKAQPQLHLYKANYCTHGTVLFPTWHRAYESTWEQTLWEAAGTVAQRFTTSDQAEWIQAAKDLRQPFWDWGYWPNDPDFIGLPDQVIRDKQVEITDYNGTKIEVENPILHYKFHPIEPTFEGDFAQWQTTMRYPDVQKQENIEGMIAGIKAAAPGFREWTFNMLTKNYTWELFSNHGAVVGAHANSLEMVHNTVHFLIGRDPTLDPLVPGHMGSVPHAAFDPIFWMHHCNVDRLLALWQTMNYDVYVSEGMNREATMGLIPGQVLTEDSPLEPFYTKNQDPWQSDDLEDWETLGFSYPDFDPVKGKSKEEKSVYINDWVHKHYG
Description: (§1) Measurements were performed at 30 °C in phosphate buffer (50 mM, pH 6.8) in polystyrene low-volume cuvettes (1.5 mL, l = 1 cm) with a double-beam spectrophotometer. […] The reaction was monitored at 475 nm for up to 60 min, following dopachrome formation. Initial velocity (V = ΔA/Δmin) was converted in μM/min according to Lambert–Beer law using the molar extinction coefficient ε = 3700 M^−1cm^−1 for dopachrome at λmax = 475 nm. Michaelis–Menten parameters (Km e Vmax) were obtained by processing initial velocity vs. substrate concentration data by non-linear fitting to M-M Equation (4), using Sigmaplot 11.0 (Systat Software Inc., San Jose, CA, USA). Linearized Lineweaver–Burk Equation (5) was used to identify the inhibition mode. In both equations, V indicates the measured initial rate of reaction, [S] is the initial substrate concentration, while Vmax and Km are, respectively, the maximum reaction rate (at saturating substrate concentration) and the M-M constant, with the substrate concentration yielding half-maximum rate.
(§2) Determination of M-M inhibition constants KI and KI′, along with assignment of the inhibition mode, is the most reliable method to accurately quantify the potency of enzyme inhibitors, as it is independent of the experimental settings, like substrate and enzyme concentrations.

[2] = biological target: T1, mushroom tyrosinase (mTYR); settings: previous report, cited from earlier work
[3] = biological target: T1, mushroom tyrosinase (mTYR); assay: Inhibition of mushroom tyrosinase diphenolase reaction (substrate L-dopa, dopachrome at 475 nm); format: biochemical; settings: for Vmax^app / IC50: 30 °C; for Vmax^app: pH 6.8, L-dopa; for IC50: IC50 Diphenolase; for Ki: KI Competitive; for inhibition mode, diphenolase: from M-M and Lineweaver–Burk plots
Description: as §1
(10) KI=[I]/α−1 and KI′=[I]/α^′−1 where (11) α=(Kmapp × α^′)/Km and α^′=Vmax/Vmaxapp
as §2

[4] = biological target: T1, mushroom tyrosinase (mTYR); settings: cited from earlier work
[5] = average over inhibitor concentrations
[6] = diphenolase, average over inhibitor concentrations
[7] = diphenolase, inhibitor 0.175 µM

Structure (SMILES): O=C(/C=C/c1ccc(O)c(O)c1)c1ccc(O)cc1O [Butein, (E)-1-(2,4-dihydroxyphenyl)-3-(3,4-dihydroxyphenyl)prop-2-en-1-one]
- Vmax^app ([1]; inhibitor 1.4 µM): 3.24 ± 0.07 µM/min
- Vmax^app ([1]; inhibitor 2.8 µM): 3.02 ± 0.05 µM/min
- Vmax^app ([1]; inhibitor 5.6 µM): 2.21 ± 0.04 µM/min
- Vmax^app ([1]; inhibitor 11.2 µM): 1.95 ± 0.07 µM/min
- IC50 ([1]; pH 6.8, L-tyrosine 0.05 mM): 45.1 ± 18.3 µM
- IC50 ([1]; pH 6.8, L-tyrosine 0.125 mM): 35.6 ± 28.4 µM
- IC50 ([1]; pH 6.8, L-tyrosine 0.25 mM): 12.9 ± 3.22 µM
- IC50 ([1]; pH 6.8, L-tyrosine 0.50 mM): 12.3 ± 2.52 µM
- IC50 ([1]; pH 6.8, L-tyrosine 1.00 mM): 10.9 ± 2.19 µM
- inhibition mode, monophenolase [1]: uncompetitive
- inhibition mode, monophenolase ([1]; listed as BU): reversible uncompetitive
- KI′ Calc. from Km [1, 5]: 10.74 ± 3.36 µM
- KI′ Calc. from Vmax [1, 5]: 9.17 ± 2.01 µM
- KI′ Uncompetitive ([1]; averaged over both calculation methods): 9.95 µM
- KI′ Uncompetitive ([1]; averaged over both calculation methods, listed as BU): 9.95 ± 2.69 µM
- KI′ Calc. from Km ([1]; inhibitor 1.4 µM): 7.47 µM
- KI′ Calc. from Vmax ([1]; inhibitor 1.4 µM): 7.44 µM
- KI′ Calc. from Km ([1]; inhibitor 2.8 µM): 10.50 µM
- KI′ Calc. from Vmax ([1]; inhibitor 2.8 µM): 10.19 µM
- KI′ Calc. from Km ([1]; inhibitor 5.6 µM): 9.60 µM
- KI′ Calc. from Vmax ([1]; inhibitor 5.6 µM): 7.55 µM
- KI′ Calc. from Km ([1]; inhibitor 11.2 µM): 15.40 µM
- KI′ Calc. from Vmax ([1]; inhibitor 11.2 µM): 11.49 µM
- Ki ([2]; monophenolase, competitive): 1410 µM
- inhibition mode, monophenolase [2]: competitive
- Vmax^app ([3]; inhibitor 1.4 µM): 10.93 ± 0.22 µM/min
- Vmax^app ([3]; inhibitor 2.8 µM): 10.60 ± 0.88 µM/min
- Vmax^app ([3]; inhibitor 5.6 µM): 8.17 ± 0.21 µM/min
- Vmax^app ([3]; inhibitor 11.2 µM): 7.42 ± 0.26 µM/min
- IC50 ([3]; pH 6.8, L-dopa 0.05 mM): 3.76 ± 0.96 µM
- IC50 ([3]; pH 6.8, L-dopa 0.125 mM): 4.12 ± 1.39 µM
- IC50 ([3]; pH 6.8, L-dopa 0.25 mM): 5.38 ± 0.9 µM
- IC50 ([3]; pH 6.8, L-dopa 0.50 mM): 9.31 ± 0.85 µM
- IC50 ([3]; pH 6.8, L-dopa 1.00 mM): 15.2 ± 1.25 µM
- Ki [3, 6]: 3.3 ± 0.75 µM
- Ki ([3]; diphenolase, inhibitor 1.4 µM): 3.21 µM
- Ki ([3]; diphenolase, inhibitor 2.8 µM): 2.59 µM
- Ki ([3]; diphenolase, inhibitor 5.6 µM): 3.07 µM
- Ki ([3]; diphenolase, inhibitor 11.2 µM): 4.35 µM
- KI (competitive) lower than KI′ (uncompetitive) ([3]; diphenolase): about 5 fold
- KI′ Uncompetitive [3, 6]: 18.75 ± 5.15 µM
- KI′ Uncompetitive ([3]; diphenolase, inhibitor 1.4 µM): 18.04 µM
- KI′ Uncompetitive ([3]; diphenolase, inhibitor 2.8 µM): 25.24 µM
- KI′ Uncompetitive ([3]; diphenolase, inhibitor 5.6 µM): 12.68 µM
- KI′ Uncompetitive ([3]; diphenolase, inhibitor 11.2 µM): 19.05 µM
- inhibition mode, diphenolase [3]: mixed-type
- effect toward diphenolase reaction (reported) [4]: ineffective
- diphenolase inhibition (reported effect) ([4]; even at concentrations > 100 µM): poorly effective

Structure (SMILES): COc1cc(/C=C/C(=O)c2ccc(O)cc2O)ccc1O [Homobutein, (E)-1-(2,4-dihydroxyphenyl)-3-(4-hydroxy-3-methoxyphenyl)prop-2-en-1-one]
- Vmax^app ([1]; inhibitor 1.4 µM): 3.83 ± 0.04 µM/min
- Vmax^app ([1]; inhibitor 2.8 µM): 3.78 ± 0.05 µM/min
- Vmax^app ([1]; inhibitor 5.6 µM): 3.63 ± 0.06 µM/min
- Vmax^app ([1]; inhibitor 11.2 µM): 3.15 ± 0.03 µM/min
- IC50 ([1]; pH 6.8, L-tyrosine 0.05 mM): 4.01 ± 0.66 µM
- IC50 ([1]; pH 6.8, L-tyrosine 0.125 mM): 4.58 ± 0.88 µM
- IC50 ([1]; pH 6.8, L-tyrosine 0.25 mM): 6.06 ± 0.95 µM
- IC50 ([1]; pH 6.8, L-tyrosine 0.50 mM): 8.75 ± 1.18 µM
- IC50 ([1]; pH 6.8, L-tyrosine 1.00 mM): 14.8 ± 1.05 µM
- Ki [1, 5]: 2.76 ± 0.7 µM
- Ki ([1]; inhibitor 1.4 µM): 2.19 µM
- Ki ([1]; inhibitor 2.8 µM): 2.24 µM
- Ki ([1]; inhibitor 5.6 µM): 2.94 µM
- Ki ([1]; inhibitor 11.2 µM): 3.67 µM
- inhibition mode, monophenolase [1]: nearly competitive
- KI′ Uncompetitive ([1]; mixed-type treatment, average): 140.53 ± 94.57 µM
- KI′ Uncompetitive ([1]; mixed-type treatment, inhibitor 1.4 µM): 268.10 µM
- KI′ Uncompetitive ([1]; mixed-type treatment, inhibitor 2.8 µM): 151.20 µM
- KI′ Uncompetitive ([1]; mixed-type treatment, inhibitor 5.6 µM): 92.40 µM
- KI′ Uncompetitive ([1]; mixed-type treatment, inhibitor 11.2 µM): 50.40 µM
- Vmax^app ([3]; inhibitor 0.175 µM): 11.48 ± 0.22 µM/min
- Vmax^app ([3]; inhibitor 0.70 µM): 11.30 ± 0.88 µM/min
- Vmax^app ([3]; inhibitor 1.4 µM): 11.10 ± 0.21 µM/min
- Vmax^app ([3]; inhibitor 5.6 µM): 10.84 ± 0.26 µM/min
- IC50 ([3]; pH 6.8, L-dopa 0.05 mM): 3.04 ± 0.84 µM
- IC50 ([3]; pH 6.8, L-dopa 0.125 mM): 3.83 ± 0.94 µM
- IC50 ([3]; pH 6.8, L-dopa 0.25 mM): 5.6 ± 1.07 µM
- IC50 ([3]; pH 6.8, L-dopa 0.50 mM): 7.57 ± 1.11 µM
- IC50 ([3]; pH 6.8, L-dopa 1.00 mM): 12.4 ± 2 µM
- Ki [3, 6]: 2.5 ± 1.56 µM
- Ki [3, 7]: 1.28 µM
- Ki ([3]; diphenolase, inhibitor 0.70 µM): 1.54 µM
- Ki ([3]; diphenolase, inhibitor 1.4 µM): 2.46 µM
- Ki ([3]; diphenolase, inhibitor 5.6 µM): 4.72 µM
- lowest concentration with clear inhibition detectable ([3]; diphenolase): 175 nM
- KI′ Uncompetitive [3, 6]: 38.24 ± 27.81 µM
- KI′ Uncompetitive [3, 7]: 16.75 µM
- KI′ Uncompetitive ([3]; diphenolase, inhibitor 0.70 µM): 26.38 µM
- KI′ Uncompetitive ([3]; diphenolase, inhibitor 1.4 µM): 30.83 µM
- KI′ Uncompetitive ([3]; diphenolase, inhibitor 5.6 µM): 79.01 µM
- inhibition mode, diphenolase [3]: nearly competitive
